The test system of one data set is NCI screen panel. Set-up: method as in PMID 9572894. The settings on record: read-out: mean panel GI50 (growth inhibitory) value; cited from earlier work.
Data set [1] has as its system T24 (bladder) human-derived tumor cell line. Description: MTT reduction antiproliferative assay, T24 bladder cells. The class given is cell-based. The following applies: 48 h incubation, mean of at least three experiments, read-out: EC50 ± SEM T24. How it is done: (§1) The oxygen-substituted diaryl ketones 3–23 were evaluated for their in vitro antiproliferative activity on a panel of four cell lines, including non-tumor fibroblasts (Balb/3T3) and three human-derived tumor cell lines, namely DU-145 (prostate), T24 (bladder) and MCF7 (breast), using the conventional microculture tetrazolium reduction assay.
(§2) These values were calculated from their effects on MTT reduction in three cancer cell lines and Balb/3T3 non transformed mouse fibroblasts as a function of their concentration during 48 h of incubation. All three cancer cell lines were similarly sensitive to these compounds. […] The biological activity differences of compounds 12 and 22 with respect to their analogues could be attributed to the 3,4,5-trimethoxy substitution on the A-phenyl ring. According to literature precedents, the 3,4,5-trimethoxyphenyl ring is considered essential for the antitubulin activity of a broad variety of antimitotic compounds [36, 38, 39, 40, 41, 42, 43, 44, 45]. […] In this context, only compound 22 have a good mean selectivity index (2.45).
(§3) Human cancer cell lines (T24, DU-145, MCF7) were cultured in high-glucose Dulbecco's modified Eagle medium (Gibco, Grand Island, NY, USA) supplemented with 10% foetal calf serum, penicillin (100 U/mL), and streptomycin (100 μg/mL). Balb/3T3 cells (normal mouse fibroblasts) were cultured in the same medium, except that the foetal calf serum was replaced by 10% newborn calf serum. All cultures were kept at 37 °C in 95% air/5% CO2 at 100% humidity. Phosphate-buffered saline (PBS) was purchased from Gibco. Cells were incubated at the indicated times at 37 °C with or without hydroquinones at various concentrations.
(§4) The cytotoxicity of the bis aryl ketones was assessed by following the reduction of MTT (3-(4,5-dimethylthiazolyl-2)-2,5-diphenyltetrazolium bromide) to formazan blue. Briefly, cells were seeded into 96-well plates at a density of 10,000 cells/well for 24 h and then incubated for 48 h with or without the compounds. Cells were then washed twice with warm PBS and incubated with MTT (0.5 mg/mL) for 2 h at 37 °C. Incubation medium was thereafter discarded and the blue formazan crystals were solubilized by adding 100 μL DMSO/well. The colour solution was subsequently read at 550 nm. Results are expressed as % of MTT reduction compared to untreated control conditions. The calculation of EC50 values was performed by using GraphPad Prism software (San Diego, CA, USA).
(In general: Formazan colour is commonly taken as a measure of viable cells.)

For data set [2], the system named is Balb/3T3 non-tumor fibroblasts. Description: MTT reduction assay, non-tumor fibroblasts. Format: cell-based. The settings on record: Mus musculus, 48 h incubation, mean of at least three experiments, read-out: EC50 ± SEM BALB/3T3. How it is done: as §1, §2, §3, §4
Data set [3] has as its system Balb/3T3 fibroblasts vs T24, DU-145 and MCF7 tumor cells. Description: Mean selective index, fibroblasts versus tumor cells. The class given is cell-based. The following applies: EC50 values fibroblasts/EC50 values tumor cells. As for the experimental part:
These values were calculated from their effects on MTT reduction in three cancer cell lines and Balb/3T3 non transformed mouse fibroblasts as a function of their concentration during 48 h of incubation.

Data set [4] concerns MCF7 (breast) human-derived tumor cell line. Description: MTT reduction antiproliferative assay, MCF7 breast cells. Format: cell-based. The following applies: 48 h incubation, mean of at least three experiments, read-out: EC50 ± SEM MCF-7. As for the experimental part: as §1, §2, §3, §4
Data set [5] concerns DU-145 (prostate) human-derived tumor cell line. Description: MTT reduction antiproliferative assay, DU-145 prostate cells. Format: cell-based. The following applies: 48 h incubation, mean of at least three experiments, read-out: EC50 ± SEM DU-145. How it is done:
as §1, §2, §3, §4

The GI50 is the concentration at which growth is held to half of that of the control. For the molecule `COc1ccc(C(=O)c2cc(OC)c(OC)c(OC)c2)cc1O` [phenstatin], the GI50 with NCI screen panel was 0.0601 µM.

What is called melting point is the temperature, or range, at which the solid turns liquid. In turn, `COc1cc(C(=O)c2cc(O)c3ccccc3c2O)cc(OC)c1OC` [compound 22, (1,4-Dihydroxynaphthalen-2-yl)(3',4',5'-trimethoxyphenyl)methanone] yielded a melting point of 189 to 191 °C. Also, the EC50 in data set [1] was found to be 13.5 ± 1.9 µM. The EC50 in data set [2] came to 25.1 ± 3.9 µM. Also, in data set [3], the “MSI: Mean Selective Index” value came out at 2.45. In addition, the EC50 in data set [4] stood at 20.2 ± 4.5 µM. In addition, the EC50 in data set [5] came to 5.9 ± 0.8 µM.

Molecule `COc1ccc(C(=O)c2cc(O)c3ccccc3c2O)cc1` [compound 18, (1,4-Dihydroxynaphthalen-2-yl)(4'-methoxyphenyl)methanone] returned a melting point of 150 to 151 °C. Besides, the EC50 in data set [1] worked out at 127 ± 10.6 µM. For the same molecule, in data set [2], the EC50 came to 107 ± 12.3 µM. The “MSI: Mean Selective Index” value in data set [3] was determined as 1.03. The EC50 in data set [4] is 125 ± 10.2 µM. Also, in data set [5], the EC50 was determined as 77.5 ± 6.5 µM.

Take `Cc1cccc(C(=O)c2cc(O)c3ccccc3c2O)c1` [compound 15, (1,4-Dihydroxynaphthalen-2-yl)(3'-methylphenyl)methanone]: the melting point fell in the range of 154 to 155 °C. For the same molecule, the EC50 in data set [1] worked out at 137 ± 11.7 µM. The EC50 in data set [2] is 142 ± 13.9 µM. Moreover, the “MSI: Mean Selective Index” value in data set [3] is listed as 0.99. The EC50 in data set [4] was 145 ± 12.7 µM. Besides, the EC50 in data set [5] was determined as 147 ± 15.9 µM.

Turning to `Cc1ccccc1C(=O)c1cc(O)c2ccccc2c1O` [compound 14, (1,4-Dihydroxynaphthalen-2-yl)(2'-methylphenyl)methanone], the melting point lay in the range of 132 to 133 °C. In data set [1], the EC50 was determined as 143 ± 9.5 µM. The EC50 in data set [2] turned out to be 226 ± 25.4 µM. Further, in data set [3], the “MSI: Mean Selective Index” value came to 1.54. Moreover, the EC50 in data set [4] was 152 ± 14.5 µM. For the same molecule, in data set [5], the EC50 was determined as 144 ± 17.7 µM.

(Values after publication PMC6270201, “Eco-Friendly Synthesis and Antiproliferative Evaluation of Some Oxygen Substituted Diaryl Ketones” (Molecules, 2013).)
